Results taken from patent US20100234226A1, “HERBICIDE COMBINATION COMPRISING DIMETHOXYTRIAZINYL-SUBSTITUTED DIFLUOROMETHANESULFONYLANILIDES” (BAYER CROPSCIENCE AG, priority 2008, published 2010).
Where two headings read alike, the source gives them in different places.

Key:
Assay type in all cases: in vivo
Veronica persica (VERPE) = assay: Post-emergence action against weeds, greenhouse pot test, Veronica persica; conditions: read-out: % activity found; for inhibition at 4 g/ha: 4 g of ai/ha; for inhibition at 12 g/ha: 12 g of ai/ha
Experimental: (§1) Seeds or rhizome pieces of mono- and dicotyledonous harmful and useful plants were placed in peat pots (diameter 4 cm) filled with sandy loam and then covered with soil. The pots were kept in a greenhouse under optimum conditions. In addition, harmful plants encountered in paddy rice cultivation were cultivated in pots with a water level 2 cm above the soil surface.
(§2) About three weeks after the start of the cultivation, the test plants were treated at the 2- to 3-leaf stage. The herbicides, formulated as powder or liquid concentrates, were, either alone or in the combinations according to the invention, sprayed in various dosages on to the green parts of the plants using an application rate of 600 l of water/ha (converted). For further cultivation of the plants, the pots were then again kept under optimum conditions in a greenhouse.
(§3) The visual scoring of the herbicidal effects was carried out in intervals up to 21 days after the treatment. Scoring was carried out in percent in comparison to the untreated control plants. 0%=no herbicidal activity, 100%=complete herbicidal activity=complete kill.
(§4) The percentages from the treatments with the herbicides alone (=individual application) and with the combinations according to the invention (=mixtures) were employed to calculate interactions using the method of Colby. When the observed efficacies of the mixtures exceed the formal sum of the values of the tests with individual applications, they also exceed the expected value according to Colby, which is calculated using the formula below (cf. S. R. Colby; in Weeds 15 (1967) pp. 20 to 22):
(§5) Here: • A, B=activity of components A and B in percent at a dosage of a and b g of ai/ha (=gramm of active substance per hectare), respectively. • E=expected value in % at a dosage of a+b g of ai/ha.
(§6) The combinations according to the invention of herbicides from group (A) with herbicides from group (B) were tested on a broad spectrum of important harmful plants (weed grasses, broad-leaved weeds/Cyperaceae) and useful plants: Triticum aestivum (TRZAS), Stellaria media (STEME), Lolium multiflorum (LOLMU), Veronica persica (VERPE), Alopecurus myosuroides (ALOMY), Matricaria inodora (MATIN), Brassica napus (BRSNW), Viola tricolor (VIOTR), Avena fatua (AVEFA), Amaranthus retroflexus (AMARE), Zea mays (ZEAMX), Pharbitis purpurea (PHBPU), Setaria viridis (SETVI), Fallopia (ex Polygonum) convolvulus (POLCO), Echinochloa crus-gaffi (ECHCG), Abuthilon theophrasti (ABUTH), Cyperus esculentus (CYPES), Oryza sativa (ORYSA).
(§7) Of particular interest are the results shown in the tables (Tab.) below, where the following key is used: • (1) EPPO code (former Bayer code) for the treated plant (see above) • (2) Time of scoring: DAT (days after treatment) • (3) Component A tested (identifying number) • (4) Component B tested (identifying number) • (5) Dosage component A [g of ai/ha] • (6) Dosage component B [g of ai/ha] • (7) % activity found • (8) E value (calculated according to Colby; see above) • (9) Comments: “SYNERGY”=synergistic interaction (E value <% activity found); “SAFENING”=safener action on useful plant (E value >% activity found)

[1] = system: Matricaria inodora (MATIN); assay: Post-emergence action against weeds, greenhouse pot test, Matricaria inodora; conditions: for (7) % activity found: MATIN; for inhibition at 200 g/ha: 200 g of ai/ha; for inhibition at 600 g/ha: 600 g of ai/ha
Experimental: as §1, §2, §3, §4, §5

Setaria viridis (SETVI) = assay: Post-emergence action against weeds, greenhouse pot test, Setaria viridis; conditions: 504 h, read-out: % activity found
Experimental: as §1, §2, §3, §4
(§8) Here: • A, B=activity of components A and B in percent at a dosage of a and b g of ai/ha (=gramm of active substance per hectare), respectively. • E=expected value in % at a dosage of a+b g of ai/ha. […]

[2] = system: Fallopia (ex Polygonum) convolvulus (POLCO); assay: Post-emergence action against weeds, greenhouse pot test, Fallopia convolvulus
Experimental: as §1, §2, §3, §4, §5, §6, §7

Zea mays (ZEAMX) = assay: Post-emergence action against weeds, greenhouse pot test, Zea mays; conditions: for inhibition at 200 g/ha: 200 g of ai/ha
Experimental: as §1, §2, §3, §4, §5, §6, §7

[3] = system: Lolium multiflorum (LOLMU); assay: Post-emergence action against weeds, greenhouse pot test, Lolium multiflorum; conditions: read-out: % activity found; for inhibition at 200 g/ha: 200 g of ai/ha; for inhibition at 600 g/ha: 600 g of ai/ha
Experimental: as §1, §2, §3, §4, §5, §6, §7

[4] = system: Triticum aestivum (TRZAS); assay: Post-emergence action against weeds, greenhouse pot test, Triticum aestivum; conditions: 240 h, read-out: % activity found
Experimental: as §1, §2, §3, §4, §8

[5] = system: Cyperus esculentus (CYPES); assay: Post-emergence action against weeds, greenhouse pot test, Cyperus esculentus
Experimental: as §1, §2, §3, §4, §5

Viola tricolor (VIOTR) = assay: Post-emergence action against weeds, greenhouse pot test, Viola tricolor; conditions: for inhibition at 200 g/ha: 200 g of ai/ha
Experimental: as §1, §2, §3, §4, §5, §6, §7

[6] = system: Amaranthus retroflexus (AMARE); assay: Post-emergence action against weeds, greenhouse pot test, Amaranthus retroflexus; conditions: read-out: % activity found
Experimental: as §1, §2, §3, §4, §5, §6, §7

[7] = Fallopia convolvulus, post-emergence, 504 h, read-out: % activity found
[8] = Zea mays, post-emergence, 240 h, read-out: % activity found
[9] = Tripleurospermum inodorum, post-emergence, 240 h, 10 DAT, read-out: % activity found
[10] = Tripleurospermum inodorum, post-emergence, 504 h, 21 DAT, read-out: % activity found

Compound: CCS(=O)(=O)Oc1ccc2c(c1)C(C)(C)CO2 [B-9, 2,3-dihydro-3,3-dimethyl-5-benzofuranyl ethanesulfonate]
- inhibition at 100 g/ha (Veronica persica (VERPE); 504 h): 0%
- inhibition at 100 g/ha ([1]; Tripleurospermum inodorum, post-emergence, 504 h, read-out: % activity found): 50%
- inhibition at 100 g/ha (Setaria viridis (SETVI)): 40%
- inhibition at 100 g/ha [2, 7]: 0%
- inhibition at 300 g/ha [2, 7]: 30%
- inhibition at 100 g/ha (Zea mays (ZEAMX); [8]): 10%
- inhibition at 300 g/ha (Zea mays (ZEAMX); [8]): 20%
- inhibition at 300 g/ha (Zea mays (ZEAMX); Zea mays, post-emergence, 504 h, read-out: % activity found): 0%
- inhibition at 300 g/ha ([3]; 504 h): 0%

Compound: CNC1=C(c2cccc(C(F)(F)F)c2)C(=O)C(c2ccccc2)O1 (racemic) [B-61, (±)-5-(methylamino)-2-phenyl-4-[3-(trifluoromethyl)phenyl]-3(2H)-furanone]
- inhibition at 40 g/ha [4]: 30%
- (7) % activity found ([1]; 21 DAT, B-61 alone, dose (6) 40): 50%
- (7) % activity found ([1]; 21 DAT, B-61 alone, dose (6) 120): 50%
- (7) % activity found ([1]; 21 DAT, Table 65, B-61 alone, dose (6) 40): 50%
- (7) % activity found ([5]; CYPES, 21 DAT, B-61 alone, dose (6) 40): 20%
- (7) % activity found (Zea mays (ZEAMX); ZEAMX, 21 DAT, B-61 alone, dose (6) 120): 50%
- inhibition at 40 g/ha (Zea mays (ZEAMX); [8]): 40%
- inhibition at 120 g/ha (Zea mays (ZEAMX); [8]): 50%
- inhibition at 40 g/ha ([3]; 240 h): 50%
- inhibition at 40 g/ha ([3]; 504 h): 40%
- (7) % activity found (Viola tricolor (VIOTR); VIOTR, 21 DAT, B-61 alone, dose (6) 120): 70%

Compound: CCOC1Oc2ccc(OS(C)(=O)=O)cc2C1(C)C (racemic) [B-49, (±)-2-ethoxy-2,3-dihydro-3,3-dimethyl-5-benzofuranyl methanesulfonate]
- inhibition at 200 g/ha (Veronica persica (VERPE); 504 h, 21 DAT, 200 g of ai/ha): 20%
- inhibition at 200 g/ha [1, 9]: 0%
- inhibition at 600 g/ha [1, 9]: 0%
- inhibition at 200 g/ha [1, 10]: 20%
- inhibition at 600 g/ha [1, 10]: 30%
- inhibition at 600 g/ha ([5]; Cyperus esculentus, post-emergence, 504 h, 21 DAT, 600 g of ai/ha, read-out: % activity found): 0%
- inhibition at 200 g/ha ([2]; Fallopia convolvulus, post-emergence, 504 h, 21 DAT, 200 g of ai/ha, read-out: % activity found): 40%
- inhibition at 600 g/ha ([2]; Fallopia convolvulus, post-emergence, 504 h, 21 DAT, 600 g of ai/ha, read-out: % activity found): 50%
- inhibition at 200 g/ha (Zea mays (ZEAMX); Zea mays, post-emergence, 240 h, 10 DAT, read-out: % activity found): 30%
- inhibition at 600 g/ha (Zea mays (ZEAMX); Zea mays, post-emergence, 240 h, 10 DAT, 600 g of ai/ha, read-out: % activity found): 40%
- inhibition at 200 g/ha (Zea mays (ZEAMX); Zea mays, post-emergence, 504 h, 21 DAT, read-out: % activity found): 0%
- inhibition at 200 g/ha ([3]; 240 h, 10 DAT): 0%
- inhibition at 600 g/ha ([3]; 240 h, 10 DAT): 10%
- inhibition at 200 g/ha ([3]; 504 h, 21 DAT): 0%
- inhibition at 600 g/ha ([3]; 504 h, 21 DAT): 0%
- inhibition at 200 g/ha (Viola tricolor (VIOTR); Viola tricolor, post-emergence, 240 h, 10 DAT, read-out: % activity found): 0%
- inhibition at 200 g/ha (Viola tricolor (VIOTR); Viola tricolor, post-emergence, 504 h, 21 DAT, read-out: % activity found): 0%
- inhibition at 600 g/ha (Viola tricolor (VIOTR); Viola tricolor, post-emergence, 504 h, 21 DAT, 600 g of ai/ha, read-out: % activity found): 0%
- inhibition at 200 g/ha ([6]; 504 h, 21 DAT, 200 g of ai/ha): 50%

Compound: COc1nc(OC)nc(C(=O)c2cccc(F)c2N(C)S(=O)(=O)C(F)F)n1 [A-1]
- inhibition at 4 g/ha (Veronica persica (VERPE); 240 h, 10 DAT): 60%
- inhibition at 12 g/ha (Veronica persica (VERPE); 240 h, 10 DAT): 60%
- inhibition at 4 g/ha (Veronica persica (VERPE); 504 h, 21 DAT): 30%
- inhibition at 12 g/ha (Veronica persica (VERPE); 504 h, 21 DAT): 40%
- (7) % activity found ([1]; 21 DAT, A-1 alone, dose (5) 4): 50%
- (7) % activity found ([1]; 21 DAT, Table 65, A-1 alone, dose (5) 12): 60%
- inhibition at 4 g/ha ([1]; Tripleurospermum inodorum, post-emergence, 10/21 DAT, 4 g of ai/ha, read-out: % activity found): 50%
- inhibition at 12 g/ha ([5]; Cyperus esculentus, post-emergence, 240 h, 10 DAT, 12 g of ai/ha, read-out: % activity found): 70%
- % activity found ([2]; 21 DAT, 12 g of ai/ha): 75%
- inhibition at 4 g/ha (Viola tricolor (VIOTR); Viola tricolor, post-emergence, 240 h, 10 DAT, 4 g of ai/ha, read-out: % activity found): 20%
- inhibition at 4 g/ha ([6]; 240 h, 10 DAT, 4 g of ai/ha): 70%
